Experiments:
Type in all cases: functional, cell-based
LOX IMVI = test: Antiproliferative activity against human LOX IMVI cells assessed as cell growth inhibition measured after 48 hrs by sulforhodamine B assay
[1] = tested on: Panel leukemia (Carcinoma cell lines); test: Antiproliferative activity against human Panel leukemia (Carcinoma cell lines) assessed as cell growth inhibition measured after 48 hrs by SRB assay
MCF7 = test: Antiproliferative activity against human MCF7 cells assessed as cell growth inhibition measured after 48 hrs in presence of uridine by SRB assay; settings: MCF7, 48 h
[2] = tested on: Panel colon (Carcinoma cell lines); test: Antiproliferative activity against human Panel colon (Carcinoma cell lines) assessed as cell growth inhibition measured after 48 hrs by SRB assay
DU-145 = test: Antiproliferative activity against human DU-145 cells assessed as cell growth inhibition measured after 48 hrs by sulforhodamine B assay; settings: DU-145, 48 h
SN12C = test: Antiproliferative activity against human SN12C cells assessed as cell growth inhibition measured after 48 hrs by sulforhodamine B assay
OVCAR-4 = test: Antiproliferative activity against human OVCAR-4 cells assessed as cell growth inhibition measured after 48 hrs by sulforhodamine B assay; settings: OVCAR-4, 48 h
SR = test: Antiproliferative activity against human SR cells assessed as cell growth inhibition measured after 48 hrs by sulforhodamine B assay
HOP-62 = test: Antiproliferative activity against human HOP-62 cells assessed as cell growth inhibition measured after 48 hrs by sulforhodamine B assay; settings: HOP-62, 48 h
HCC 2998 = test: Antiproliferative activity against human HCC 2998 cells assessed as cell growth inhibition measured after 48 hrs by sulforhodamine B assay; settings: HCC 2998, 48 h
Malme-3M = test: Antiproliferative activity against human Malme-3M cells assessed as cell growth inhibition measured after 48 hrs by sulforhodamine B assay
RXF 393 = test: Antiproliferative activity against human RXF 393 cells assessed as cell growth inhibition measured after 48 hrs by sulforhodamine B assay; settings: RXF 393, 48 h
HT-29 [3] = test: Antiproliferative activity against human HT-29 cells assessed as cell growth inhibition measured after 48 hrs by SRB assay; settings: HT-29, 48 h
NCI-H522 = test: Antiproliferative activity against human NCI-H522 cells assessed as cell growth inhibition measured after 48 hrs by sulforhodamine B assay; settings: NCI-H522, 48 h
[4] = tested on: Panel NCI-60 (60 carcinoma cell lines); test: Antiproliferative activity against human Panel NCI-60 (60 carcinoma cell lines) assessed as cell growth inhibition measured after 48 hrs by SRB assay
IGROV-1 = test: Antiproliferative activity against human IGROV-1 cells assessed as cell growth inhibition measured after 48 hrs by sulforhodamine B assay; settings: IGROV-1, 48 h
A498 = test: Antiproliferative activity against human A498 cells assessed as cell growth inhibition measured after 48 hrs by sulforhodamine B assay; settings: A498, 48 h
NCI-H226 = test: Antiproliferative activity against human NCI-H226 cells assessed as cell growth inhibition measured after 48 hrs by sulforhodamine B assay; settings: NCI-H226, 48 h
SF-539 = test: Antiproliferative activity against human SF-539 cells assessed as cell growth inhibition measured after 48 hrs by sulforhodamine B assay; settings: SF-539, 48 h
Hs-578T = test: Antiproliferative activity against human Hs-578T cells assessed as cell growth inhibition measured after 48 hrs by sulforhodamine B assay
HCT-15 = test: Antiproliferative activity against human HCT-15 cells assessed as cell growth inhibition measured after 48 hrs by sulforhodamine B assay; settings: HCT-15, 48 h
SF-268 = test: Antiproliferative activity against human SF-268 cells assessed as cell growth inhibition measured after 48 hrs by sulforhodamine B assay; settings: SF-268, 48 h
CCRF-CEM = test: Antiproliferative activity against human CCRF-CEM cells assessed as cell growth inhibition measured after 48 hrs by sulforhodamine B assay
M14 = test: Antiproliferative activity against human M14 cells assessed as cell growth inhibition measured after 48 hrs by sulforhodamine B assay; settings: M14, 48 h
SK-OV-3 = test: Antiproliferative activity against human SK-OV-3 cells assessed as cell growth inhibition measured after 48 hrs by sulforhodamine B assay; settings: SK-OV-3, 48 h
HT-29 [5] = test: Antiproliferative activity against human HT-29 cells assessed as cell growth inhibition measured after 48 hrs in presence of uridine by SRB assay; settings: HT-29, 48 h

Structure (SMILES)	IC50 (LOX IMVI)	IC50 (MCF7)	IC50 (DU-145)	IC50 (SN12C)	IC50 (OVCAR-4)	IC50 (SR)	IC50 (HOP-62)	IC50 (HCC 2998)	IC50 (Malme-3M)	IC50 (RXF 393)	IC50 (HT-29 [3]; read-out: IC50)	IC50 (HT-29 [3]; read-out: pIC50 (converted))	IC50 (NCI-H522)	IC50 (IGROV-1)	IC50 (A498)	IC50 (NCI-H226)	IC50 (SF-539)	IC50 (Hs-578T)	IC50 (HCT-15)	IC50 (SF-268)	also measured
CCNC(=O)Nc1ccc(S(=O)(=O)Oc2ccccc2CC)cc1	0.417 µM	18 µM	1.23 µM	7.24 µM	22.4 µM	0.741 µM	14.5 µM	17 µM	17.8 µM	12.6 µM	0.99 µM	1.02 µM	1.32 µM	5.89 µM	5.89 µM	9.33 µM	2.14 µM	11.2 µM	0.251 µM	2.88 µM	IC50 [1]: 0.81 µM; IC50 [2]: 1.5 µM; IC50 [4]: 3.5 µM; IC50 (CCRF-CEM): 0.912 µM; IC50 (M14): 4.17 µM; IC50 (SK-OV-3): 12.6 µM; IC50 (HT-29 [5]): 27 µM
Cc1c(-c2ccc(-c3ccccc3F)cc2)nc2ccc(F)cc2c1C(=O)O [BREQUINAR]	0.0933 µM	25 µM	0.263 µM	1.78 µM	2.75 µM	0.427 µM	1.1 µM	9.55 µM	15.5 µM	11.7 µM	0.59 µM	0.372 µM	2 µM	0.302 µM	50.1 µM	19.5 µM	0.347 µM	6.92 µM	0.0562 µM	0.372 µM	IC50 (CCRF-CEM): 0.282 µM; IC50 (M14): 4.68 µM; IC50 (SK-OV-3): 16.2 µM; IC50 (HT-29 [5]): 24 µM
